Measured values: patent publication US11297838B2, “Pesticidal compositions and methods” (CORTEVA AGRISCIENCE LLC, priority 2018, dated 2022)

What was measured:
Type in all cases: in vivo
[1] = test system: Yellow Fever Mosquito (Aedes aegypti, AEDSAE); settings: about 1 day-old larvae, 4000 ppm master solution diluted, 3 days, room temperature
Protocol: Insecticidal Test for Yellow Fever Mosquito (Aedes aegypti, AEDSAE) (“YFM”)
Master plates containing 400 μg of a molecule dissolved in 100 μL of dimethyl sulfoxide (DMSO) (equivalent to a 4000 ppm solution) are used. A master plate of assembled molecules contains 15 μL per well. To this plate, 135 μL of a 90:10 water/acetone mixture is added to each well. A robot (Biomek® NXP Laboratory Automation Workstation) is programmed to dispense 15 μL aspirations from the master plate into an empty 96-well shallow plate (“daughter” plate). There are 6 reps (“daughter” plates) created per master. The created “daughter” plates are then immediately infested with YFM larvae.
The day before plates are to be treated, mosquito eggs are placed in Millipore water containing liver powder to begin hatching (4 g. into 400 mL). After the “daughter” plates are created using the robot, they are infested with 220 μL of the liver powder/larval mosquito mixture (about 1 day-old larvae). After plates are infested with mosquito larvae, a non-evaporative lid is used to cover the plate to reduce drying. Plates are held at room temperature for 3 days prior to grading. After 3 days, each well is observed and scored based on mortality. In the reporting of the results, the “YFM Rating Table” was used.

[2] = test system: Cabbage Looper (Trichloplusia ni, TRIPNI); assay: Insecticidal test for cabbage looper (CL), 128-well diet tray assay; settings: Trichoplusia ni, 168 h; 50 μg/cm^2 on artificial diet, second instar larvae, five to seven days, 25° C.; read-out: CL rating, % Control (or Mortality)
Protocol: Insecticidal Test for Cabbage Looper (Trichloplusia ni, TRIPNI) (“CL”)
Bioassays on cabbage looper (CL; Trichloplusia ni: Lepidoptera) are conducted using a 128-well diet tray assay. One to five second instar CL larvae are placed in each well (3 mL) of the diet tray that had been previously filled with 1 mL of artificial diet to which 50 μg/cm^2 of the test compound (dissolved in 50 μL of 90:10 acetone-water mixture) had been applied (to each of eight wells) and then allowed to dry. Trays are covered with a clear self-adhesive cover, vented to allow gas exchange, and held at 25° C., 14:10 light-dark for five to seven days. Percent mortality is recorded for the larvae in each well; activity in the eight wells is then averaged. In the reporting of the results, the “BAW & CL Rating Table” was used.

[3] = test system: Beet Armyworm (Spodoptera exigua, LAPHEG); assay: Insecticidal test for beet armyworm (BAW), 128-well diet tray assay; settings: 168 h, 50 μg/cm^2 on artificial diet, second instar larvae, five to seven days, 25° C., read-out: BAW rating, % Control (or Mortality)
Protocol: Insecticidal Test for Beet Armyworm (Spodoptera exigua, LAPHEG) (“BAW”)
Bioassays on beet armyworm (BAW; Spodoptera exigua: Lepidoptera) are conducted using a 128-well diet tray assay. One to five second instar BAW larvae are placed in each well (3 mL) of the diet tray that had been previously filled with 1 mL of artificial diet to which 50 μg/cm^2 of the test compound (dissolved in 50 μL of 90:10 acetone-water mixture) had been applied (to each of eight wells) and then allowed to dry. Trays are covered with a clear self-adhesive cover, vented to allow gas exchange, and held at 25° C., 14:10 light-dark for five to seven days. Percent mortality is recorded for the larvae in each well; activity in the eight wells is then averaged. In the reporting of the results, the “BAW & CL Rating Table” was used.

SMILES | YFM rating, % Control (or Mortality) [1] | mortality at 50 µg/cm2 [2] [%] | mortality at 50 µg/cm2 [3] [%]
CC(C)c1ccccc1N1C(=O)CS/C1=N\C(=O)OCCc1ccc(-c2ncn(-c3ccc(OC(F)(F)F)cc3)n2)cc1 [A2, 4-(1-(4-(Trifluoromethoxy)phenyl)-1H-1,2,4-triazol-3-yl)phenethyl (Z)-(3-(2-isopropylphenyl)-4-oxothiazolidin-2-ylidene)carbamate] | A (80-100) | 50 to 100 | 50 to 100
Cc1cc(Cl)c(N2C(=O)CS/C2=N\C(=O)OCC(F)c2ccc(-c3ncn(-c4ccc(OC(F)(F)F)cc4)n3)cc2)cc1C (stereo not drawn) [A38, 2-Fluoro-2-(4-(1-(4-(trifluoromethoxy)phenyl)-1H-1,2,4-triazol-3-yl)phenyl)ethyl (Z)-(3-(2-chloro-4,5-dimethylphenyl)-4-oxothiazolidin-2-ylidene)carbamate] | – | 50 to 100 | 0
O=C(/N=C1\SCC(=O)N1c1cccc2c1CCCC2)OCC(F)c1ccc(-c2ncn(-c3ccc(OC(F)(F)F)cc3)n2)cc1 (stereo not drawn) [A39, 2-Fluoro-2-(4-(1-(4-(trifluoromethoxy)phenyl)-1H-1,2,4-triazol-3-yl)phenyl)ethyl (Z)-(4-oxo-3-(5,6,7,8-tetrahydronaphthalen-1-yl)thiazolidin-2-ylidene)carbamate] | – | 50 to 100 | 50 to 100
CCOc1ccccc1N1C(=O)CS/C1=N\C(=O)OCC(F)c1ccc(-c2ncn(-c3ccc(OC(F)(F)F)cc3)n2)cc1 (stereo not drawn) [A40, 2-Fluoro-2-(4-(1-(4-(trifluoromethoxy)phenyl)-1H-1,2,4-triazol-3-yl)phenyl)ethyl (Z)-(3-(2-ethoxyphenyl)-4-oxothiazolidin-2-ylidene)carbamate] | – | 50 to 100 | 50 to 100
CCC(C)Oc1ccc(C)cc1N1C(=O)CS/C1=N\C(=O)OCC(F)c1ccc(-c2ncn(-c3ccc(OC(F)(F)F)cc3)n2)cc1 (stereo not drawn) [A41, 2-Fluoro-2-(4-(1-(4-(trifluoromethoxy)phenyl)-1H-1,2,4-triazol-3-yl)phenyl)ethyl (Z)-(3-(2-(sec-butoxy)-5-methylphenyl)-4-oxothiazolidin-2-ylidene)carbamate] | – | 50 to 100 | 50 to 100
CCc1cccc(C)c1N1C(=O)CS/C1=N\C(=O)OCC(F)c1ccc(-c2ncn(-c3ccc(OC(F)(F)F)cc3)n2)cc1 (stereo not drawn) [A42, 2-Fluoro-2-(4-(1-(4-(trifluoromethoxy)phenyl)-1H-1,2,4-triazol-3-yl)phenyl)ethyl (Z)-(3-(2-ethyl-6-methylphenyl)-4-oxothiazolidin-2-ylidene)carbamate] | – | 50 to 100 | 0 to 50
CC(C)c1ccc(Cl)cc1N1C(=O)CS/C1=N\C(=O)OCCc1ccc(-c2ncn(-c3ccc(OC(F)(F)C(F)(F)F)cc3)n2)cc1 [A43, 4-(1-(4-(Perfluoroethoxy)phenyl)-1H-1,2,4-triazol-3-yl)phenethyl (Z)-(3-(5-chloro-2-isopropylphenyl)-4-oxothiazolidin-2-ylidene)carbamate] | – | 0 | 50 to 100
Cc1ccc(C(C)C)c(N2C(=O)CS/C2=N\C(=O)OCCc2ccc(-c3ncn(-c4ccc(OC(F)(F)C(F)(F)F)cc4)n3)cc2)c1 [A44, 4-(1-(4-(Perfluoroethoxy)phenyl)-1H-1,2,4-triazol-3-yl)phenethyl (Z)-(3-(2-isopropyl-5-methylphenyl)-4-oxothiazolidin-2-ylidene)carbamate] | – | 50 to 100 | 50 to 100
CC(C)c1ccccc1N1C(=O)CS/C1=N\C(=O)OCCc1ccc(-c2ncn(-c3ccc(OC(F)(F)C(F)(F)F)cc3)n2)cc1 [A45, 4-(1-(4-(Perfluoroethoxy)phenyl)-1H-1,2,4-triazol-3-yl)phenethyl (Z)-(3-(2-isopropylphenyl)-4-oxothiazolidin-2-ylidene)carbamate] | – | 50 to 100 | 50 to 100
Cc1ccc(C(C)C)c(N2C(=O)CS/C2=N\C(=O)OCC(Cl)c2ccc(-c3ncn(-c4ccc(OC(F)(F)F)cc4)n3)cc2)c1 (stereo not drawn) [A46, 2-Chloro-2-(4-(1-(4-(trifluoromethoxy)phenyl)-1H-1,2,4-triazol-3-yl)phenyl)ethyl (Z)-(3-(2-isopropyl-5-methylphenyl)-4-oxothiazolidin-2-ylidene)carbamate] | – | 50 to 100 | 50 to 100
CC(C)c1ccccc1N1C(=O)CS/C1=N\C(=O)OCC(Cl)c1ccc(-c2ncn(-c3ccc(OC(F)(F)F)cc3)n2)cc1 (stereo not drawn) [A47, 2-Chloro-2-(4-(1-(4-(trifluoromethoxy)phenyl)-1H-1,2,4-triazol-3-yl)phenyl)ethyl (Z)-(3-(2-isopropylphenyl)-4-oxothiazolidin-2-ylidene)carbamate] | – | 50 to 100 | 50 to 100
CC(C)c1ccc(Cl)cc1N1C(=O)CS/C1=N\C(=O)OCC(Cl)c1ccc(-c2ncn(-c3ccc(OC(F)(F)F)cc3)n2)cc1 (stereo not drawn) [A48, 2-Chloro-2-(4-(1-(4-(trifluoromethoxy)phenyl)-1H-1,2,4-triazol-3-yl)phenyl)ethyl (Z)-(3-(5-chloro-2-isopropylphenyl)-4-oxothiazolidin-2-ylidene)carbamate] | – | 50 to 100 | 50 to 100
CCC(C)Oc1ccc(C)cc1N1C(=O)CS/C1=N\C(=O)OC(C)Cc1ccc(-c2ncn(-c3ccc(OC(F)(F)F)cc3)n2)cc1 (stereo not drawn) [A49, 1-(4-(1-(4-(Trifluoromethoxy)phenyl)-1H-1,2,4-triazol-3-yl)phenyl)propan-2-yl (Z)-(3-(2-(sec-butoxy)-5-methylphenyl)-4-oxothiazolidin-2-ylidene)carbamate] | – | 50 to 100 | 50 to 100
CC(Cc1ccc(-c2ncn(-c3ccc(OC(F)(F)F)cc3)n2)cc1)OC(=O)/N=C1\SCC(=O)N1c1ccccc1C(C)C (stereo not drawn) [A50, 1-(4-(1-(4-(Trifluoromethoxy)phenyl)-1H-1,2,4-triazol-3-yl)phenyl)propan-2-yl (Z)-(3-(2-isopropylphenyl)-4-oxothiazolidin-2-ylidene)carbamate] | – | 50 to 100 | 50 to 100
CCOc1ccccc1N1C(=O)CS/C1=N\C(=O)OC(C)Cc1ccc(-c2ncn(-c3ccc(OC(F)(F)F)cc3)n2)cc1 (stereo not drawn) [A51, 1-(4-(1-(4-(Trifluoromethoxy)phenyl)-1H-1,2,4-triazol-3-yl)phenyl)propan-2-yl (Z)-(3-(2-ethoxyphenyl)-4-oxothiazolidin-2-ylidene)carbamate] | – | 50 to 100 | 50 to 100
CCc1cccc(C)c1N1C(=O)CS/C1=N\C(=O)OC(C)Cc1ccc(-c2ncn(-c3ccc(OC(F)(F)F)cc3)n2)cc1 (stereo not drawn) [A52, 1-(4-(1-(4-(Trifluoromethoxy)phenyl)-1H-1,2,4-triazol-3-yl)phenyl)propan-2-yl (Z)-(3-(2-ethyl-6-methylphenyl)-4-oxothiazolidin-2-ylidene)carbamate] | – | 50 to 100 | 50 to 100
Cc1ccc(C(C)C)c(-n2ccs/c2=N\C(=O)OCCc2ccc(-c3ncn(-c4ccc(OC(F)(F)F)cc4)n3)cc2)c1 [A53, 4-(1-(4-(Trifluoromethoxy)phenyl)-1H-1,2,4-triazol-3-yl)phenethyl (Z)-(3-(2-isopropyl-5-methylphenyl)thiazol-2(3H)-ylidene)carbamate] | – | 50 to 100 | 50 to 100
Cc1ccc(C(C)C)c(-n2ccs/c2=N\C(=O)OCC(F)c2ccc(-c3ncn(-c4ccc(OC(F)(F)F)cc4)n3)cc2)c1 (stereo not drawn) [A54, 2-Fluoro-2-(4-(1-(4-(trifluoromethoxy)phenyl)-1H-1,2,4-triazol-3-yl)phenyl)ethyl (Z)-(3-(2-isopropyl-5-methylphenyl)thiazol-2(3H)-ylidene)carbamate] | – | 50 to 100 | 50 to 100
Cc1ccc(C(C)C)c(-n2ccs/c2=N\C(=O)OC(C)Cc2ccc(-c3ncn(-c4ccc(OC(F)(F)F)cc4)n3)cc2)c1 (stereo not drawn) [A55, 1-(4-(1-(4-(Trifluoromethoxy)phenyl)-1H-1,2,4-triazol-3-yl)phenyl)propan-2-yl (Z)-(3-(2-isopropyl-5-methylphenyl)thiazol-2(3H)-ylidene)carbamate] | – | 50 to 100 | 50 to 100
